According to publication PMC6946680, “Modulation of brain cation-Cl^− cotransport via the SPAK kinase inhibitor ZT-1a” (Nature Communications, 2020):
Several values for one entry are separate records, joined by “and”; a condition that tells them apart may be missing. Equal entries are not always repeated.

Tests used:
[1] = system: PIM1; experiment: Kinase profiling panel; format: biochemical
Experimental: (§1) Supplementary Table 2. ZT-1a kinase profiling data6.
(§2) ZT-1a was tested at 10 and 1 µM against a panel of 140 recombinant kinases in an enzymatic
(§3) activity-based assay performed by the International Centre for Kinase Profiling in the MRC
(§4) Protein Phosphorylation and Ubiquitylation Unit. Values represent % residual kinase activity

[2] = system: PLK1; experiment: Kinase profiling panel; format: biochemical
Experimental: as §1, §2, §3, §4

[3] = system: HER4; experiment: Kinase profiling panel; format: biochemical
Experimental: as §1, §2, §3, §4

[4] = system: SRPK1; experiment: Kinase profiling panel; format: biochemical
Experimental: as §1, §2, §3, §4

[5] = system: BRK; experiment: Kinase profiling panel; format: biochemical
Experimental: as §1, §2, §3, §4

[6] = system: ZAP70; experiment: Kinase profiling panel; format: biochemical
Experimental: as §1, §2, §3, §4

[7] = system: JNK1; experiment: Kinase profiling panel; format: biochemical
Experimental: as §1, §2, §3, §4

[8] = system: ERK2; experiment: Kinase profiling panel; format: biochemical
Experimental: as §1, §2, §3, §4

[9] = system: DAPK1; experiment: Kinase profiling panel; format: biochemical
Experimental: as §1, §2, §3, §4

[10] = system: EPH-A2; experiment: Kinase profiling panel; format: biochemical
Experimental: as §1, §2, §3, §4

[11] = system: EF2K; experiment: Kinase profiling panel; format: biochemical
Experimental: as §1, §2, §3, §4

[12] = system: IKKb; experiment: Kinase profiling panel; format: biochemical
Experimental: as §1, §2, §3, §4

[13] = system: MNK1; experiment: Kinase profiling panel; format: biochemical
Experimental: as §1, §2, §3, §4

[14] = system: PKBb; experiment: Kinase profiling panel; format: biochemical
Experimental: as §1, §2, §3, §4

[15] = system: Src; experiment: Kinase profiling panel; format: biochemical
Experimental: as §1, §2, §3, §4

[16] = system: PHK; experiment: Kinase profiling panel; format: biochemical
Experimental: as §1, §2, §3, §4

[17] = system: FGF-R1; experiment: Kinase profiling panel; format: biochemical
Experimental: as §1, §2, §3, §4

[18] = system: MEKK1; experiment: Kinase profiling panel; format: biochemical
Experimental: as §1, §2, §3, §4

[19] = system: SIK2; experiment: Kinase profiling panel; format: biochemical
Experimental: as §1, §2, §3, §4

[20] = system: PRK2; experiment: Kinase profiling panel; format: biochemical
Experimental: as §1, §2, §3, §4

[21] = system: YES1; experiment: Kinase profiling panel; format: biochemical
Experimental: as §1, §2, §3, §4

[22] = system: Lck; experiment: Kinase profiling panel; format: biochemical
Experimental: as §1, §2, §3, §4

[23] = system: PIM3; experiment: Kinase profiling panel; format: biochemical
Experimental: as §1, §2, §3, §4

[24] = system: JNK2; experiment: Kinase profiling panel; format: biochemical
Experimental: as §1, §2, §3, §4

[25] = system: MINK1; experiment: Kinase profiling panel; format: biochemical
Experimental: as §1, §2, §3, §4

[26] = system: PINK; experiment: Kinase profiling panel; format: biochemical
Experimental: as §1, §2, §3, §4

[27] = system: TAO1; experiment: Kinase profiling panel; format: biochemical
Experimental: as §1, §2, §3, §4

[28] = system: CK1δ; experiment: Kinase profiling panel; format: biochemical
Experimental: as §1, §2, §3, §4

[29] = system: CK2; experiment: Kinase profiling panel; format: biochemical
Experimental: as §1, §2, §3, §4

[30] = system: PKCγ; experiment: Kinase profiling panel; format: biochemical
Experimental: as §1, §2, §3, §4

[31] = system: CDK2-Cyclin A; experiment: Kinase profiling panel; format: biochemical
Experimental: as §1, §2, §3, §4

[32] = system: PIM2; experiment: Kinase profiling panel; format: biochemical
Experimental: as §1, §2, §3, §4

[33] = system: MELK; experiment: Kinase profiling panel; format: biochemical
Experimental: as §1, §2, §3, §4

[34] = system: CAMKKb; experiment: Kinase profiling panel; format: biochemical
Experimental: as §1, §2, §3, §4

[35] = system: WNK1; experiment: Kinase profiling panel; format: biochemical
Experimental: as §1, §2, §3, §4

[36] = system: MPSK1; experiment: Kinase profiling panel; format: biochemical
Experimental: as §1, §2, §3, §4

[37] = system: IRAK1; experiment: Kinase profiling panel; format: biochemical
Experimental: as §1, §2, §3, §4

[38] = system: mouse model of ischemic stroke (tMCAO); experiment: Neurological deficit score after tMCAO; format: in vivo; conditions: for Neurological score (score): Fig 7c, individual mice #1-#7; for neurological deficit score: ZT-1a 5.0 mg/kg
[39] = system: GSK-3β Ser9 phosphorylation; experiment: Immunoblot of GSK-3β Ser9 phosphorylation in HEK-293 cells; conditions: for GSK3b pSer9 / Actin: Fig S4b
[40] = system: KCC1 pThr927/pThr983; experiment: Choroid plexus KCC1 phospho-IP/immunoblot in rat IVH model; format: in vivo

SMILES: Cc1cc(C(C#N)c2ccc(Cl)cc2)c(Cl)cc1NC(=O)c1cc(Cl)ccc1O (centres unmarked) [ZT-1a, 5-chloro-N-(5-chloro-4-((4-chlorophenyl)(cyano)methyl)-2-methylphenyl)-2-hydroxybenzamide]
- % residual kinase activity ([1]; 1 µM): 108±19%
- % residual kinase activity ([1]; 10 µM): 101±8%
- % residual kinase activity ([2]; 1 µM): 72±1%
- % residual kinase activity ([2]; 10 µM): 93±21%
- % residual kinase activity ([3]; 1 µM): 85±8%
- % residual kinase activity ([3]; 10 µM): 84±1%
- % residual kinase activity ([4]; 1 µM): 104±5%
- % residual kinase activity ([4]; 10 µM): 73±20%
- % residual kinase activity ([5]; 1 µM): 116±12%
- % residual kinase activity ([5]; 10 µM): 103±2%
- % residual kinase activity ([6]; 1 µM): 120±1%
- % residual kinase activity ([6]; 10 µM): 97±9%
- % residual kinase activity ([7]; 1 µM): 106±4%
- % residual kinase activity ([7]; 10 µM): 110±5%
- % residual kinase activity ([8]; 1 µM): 111±25%
- % residual kinase activity ([8]; 10 µM): 75±3%
- % residual kinase activity ([9]; 1 µM): 131±8%
- % residual kinase activity ([9]; 10 µM): 159±11%
- % residual kinase activity ([10]; 1 µM): 89±23%
- % residual kinase activity ([10]; 10 µM): 78±11%
- % residual kinase activity ([11]; 1 µM): 104±13%
- % residual kinase activity ([11]; 10 µM): 56±2%
- % residual kinase activity ([12]; 1 µM): 101±0%
- % residual kinase activity ([12]; 10 µM): 78±3%
- % residual kinase activity ([13]; 1 µM): 78±19%
- % residual kinase activity ([13]; 10 µM): 87±2%
- % residual kinase activity ([14]; 1 µM): 76±14%
- % residual kinase activity ([14]; 10 µM): 51±13%
- % residual kinase activity ([15]; 1 µM): 107±4%
- % residual kinase activity ([15]; 10 µM): 84±13%
- % residual kinase activity ([16]; 1 µM): 97±3%
- % residual kinase activity ([16]; 10 µM): 107±2%
- % residual kinase activity ([17]; 1 µM): 93±6%
- % residual kinase activity ([17]; 10 µM): 101±15%
- % residual kinase activity ([18]; 1 µM): 109±1%
- % residual kinase activity ([18]; 10 µM): 93±16%
- % residual kinase activity ([19]; 1 µM): 105±16%
- % residual kinase activity ([19]; 10 µM): 76±8%
- % residual kinase activity ([20]; 1 µM): 118±4%
- % residual kinase activity ([20]; 10 µM): 120±7%
- % residual kinase activity ([21]; 1 µM): 109±3%
- % residual kinase activity ([21]; 10 µM): 98±7%
- % residual kinase activity ([22]; 1 µM): 112±13%
- % residual kinase activity ([22]; 10 µM): 127±14%
- % residual kinase activity ([23]; 1 µM): 115±12%
- % residual kinase activity ([23]; 10 µM): 99±2%
- % residual kinase activity ([24]; 1 µM): 102±2%
- % residual kinase activity ([24]; 10 µM): 147±51%
- % residual kinase activity ([25]; 1 µM): 107±5%
- % residual kinase activity ([25]; 10 µM): 108±6%
- % residual kinase activity ([26]; 1 µM): 101±13%
- % residual kinase activity ([26]; 10 µM): 59±4%
- % residual kinase activity ([27]; 1 µM): 66±2%
- % residual kinase activity ([27]; 10 µM): 104±2%
- % residual kinase activity ([28]; 1 µM): 116±5%
- % residual kinase activity ([28]; 10 µM): 114±9%
- % residual kinase activity ([29]; 1 µM): 72±15%
- % residual kinase activity ([29]; 10 µM): 59±16%
- % residual kinase activity ([30]; 1 µM): 133±11%
- % residual kinase activity ([30]; 10 µM): 120±8%
- % residual kinase activity ([31]; 1 µM): 128±12%
- % residual kinase activity ([31]; 10 µM): 125±6%
- % residual kinase activity ([32]; 1 µM): 93±5%
- % residual kinase activity ([32]; 10 µM): 93±3%
- % residual kinase activity ([33]; 1 µM): 130±34%
- % residual kinase activity ([33]; 10 µM): 63±3%
- % residual kinase activity ([34]; 1 µM): 115±10%
- % residual kinase activity ([34]; 10 µM): 102±9%
- % residual kinase activity ([35]; 1 µM): 125±17%
- % residual kinase activity ([35]; 10 µM): 122±35%
- % residual kinase activity ([36]; 1 µM): 110±6%
- % residual kinase activity ([36]; 10 µM): 105±2%
- % residual kinase activity ([37]; 1 µM): 128±2%
- % residual kinase activity ([37]; 10 µM): 95±7%
- Neurological score (score) ([38]; Day 0): 3 score
- Neurological score (score) ([38]; Day 1): 3 score and 2 score (5×) and 1 score
- Neurological score (score) ([38]; Day 3): 2 score (6×) and 1 score
- Neurological score (score) ([38]; Day 5): 1 score (3×) and 2 score (4×)
- Neurological score (score) ([38]; Day 7): 1 score (4×) and 2 score (3×)
- neurological deficit score ([38]; day 1 post tMCAO): 2.0 ± 0.2
- neurological deficit score ([38]; day 7 post tMCAO): 1.4 ± 0.2
- GSK-3β Ser9 phosphorylation ([39]; 3 µM ZT-1a, HEK-293 cells): not inhibited
- GSK3b pSer9 / Actin ([39]; ZT-1a 0.3 uM): 0.56 and 0.601 and 0.586 and 0.538
- GSK3b pSer9 / Actin ([39]; ZT-1a 1 uM): 0.58 and 0.576 and 0.603 and 0.529
- GSK3b pSer9 / Actin ([39]; ZT-1a 3 uM): 0.53 and 0.5901 and 0.613 and 0.56
- KCC1 pThr983 / Actin ([40]; rat CPe 48 h post IVH + 1a, replicates): 0.273 and 0.737 and 0.782 and 0.302 and 0.649 and 0.721
- KCC1 pThr927 / Actin ([40]; rat CPe 48 h post IVH + 1a, replicates (Fig 4 source data)): 0.027 and 0.029 and 0.034 and 0.025 and 0.037 and 0.024
- reduction of post-IVH KCC1 phosphorylation at Thr927 ([40]; rat CPe, ICV ZT-1a): 12 fold
- reduction of post-IVH KCC1 phosphorylation at Thr983 ([40]; rat CPe, ICV ZT-1a): 3.4 fold
